Assay results taken from ChEMBL document CHEMBL1201862, “PubChem BioAssay data set” (2004).
Calls of active or inactive are those of the source. Rule as the data show it, for most assays here: actives have a measured EC50 and inactives only a lower limit.

Key:
[1] = cytotoxicity toward NIH3T3 fibroblasts, dose response, counter-screen, cell-based, ATP luminescence, mouse fibroblasts (AID 2010); assay type: functional;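 also: cells exposed to compound for about 90 hours before reading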
[2] = inhibitors of intracellular T. cruzi replication, confirmation, NIH3T3 host cells, beta-gal luminescence (AID 2044); assay type: functional, cell-based;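 also: intracellular parasites grown in NIH/3T3 mouse fibroblasts as host cells; luminescent beta-galactosidase reporter signal from transgenic T. cruzi replicating inside host cells; inhibitors lower the luminescence signal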
Cytochrome P450 3A4 = Cytochrome P450 3A4 (Homo sapiens, UniProt P08684);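 also: CYP3A4 tested as one member of a cytochrome P450 panel screen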
Chain of Cytochrome P450 3A4 (P08684 whole entry): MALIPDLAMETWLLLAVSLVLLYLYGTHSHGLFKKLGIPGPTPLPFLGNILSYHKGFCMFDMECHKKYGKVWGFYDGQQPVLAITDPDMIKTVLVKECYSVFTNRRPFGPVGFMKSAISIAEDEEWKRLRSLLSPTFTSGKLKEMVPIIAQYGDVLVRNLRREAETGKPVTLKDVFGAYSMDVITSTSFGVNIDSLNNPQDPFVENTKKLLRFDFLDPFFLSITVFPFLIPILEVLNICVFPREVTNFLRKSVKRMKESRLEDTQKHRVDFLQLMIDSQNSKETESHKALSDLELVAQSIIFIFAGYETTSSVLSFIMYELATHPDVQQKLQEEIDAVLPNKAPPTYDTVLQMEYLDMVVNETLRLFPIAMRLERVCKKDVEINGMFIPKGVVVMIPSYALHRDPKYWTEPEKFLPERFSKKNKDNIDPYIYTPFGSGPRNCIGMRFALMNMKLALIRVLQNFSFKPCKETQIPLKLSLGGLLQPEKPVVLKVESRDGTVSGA

Streptokinase A = target: T1, Streptokinase A (Streptococcus pyogenes serotype M1, UniProt P10520); assay: S. pyogenes streptokinase expression inhibitors, potency, dose response, plasminogen activation absorbance, OD405 (AID 1914); assay type: functional, Streptococcus pyogenes M1 GAS;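 also: secreted streptokinase activity via plasminogen activation per viability signal from cell pellet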
T1 sequence (P10520 whole entry): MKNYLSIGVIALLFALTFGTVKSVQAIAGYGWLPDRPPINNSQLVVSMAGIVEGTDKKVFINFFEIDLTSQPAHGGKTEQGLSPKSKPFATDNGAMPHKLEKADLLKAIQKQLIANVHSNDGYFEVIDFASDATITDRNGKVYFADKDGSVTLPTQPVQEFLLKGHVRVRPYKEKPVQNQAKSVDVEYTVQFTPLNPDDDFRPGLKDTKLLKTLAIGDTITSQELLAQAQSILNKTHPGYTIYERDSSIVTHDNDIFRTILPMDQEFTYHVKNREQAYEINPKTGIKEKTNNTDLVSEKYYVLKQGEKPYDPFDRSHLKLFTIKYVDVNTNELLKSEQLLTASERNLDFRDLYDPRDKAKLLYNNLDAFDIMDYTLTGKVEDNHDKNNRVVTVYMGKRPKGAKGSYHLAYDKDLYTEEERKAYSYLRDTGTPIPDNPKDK

[3] = system: Streptococcus sp. 'group A'; assay: growth inhibition of control SK(-) GAS strain, dose response, counter-screen for streptokinase expression inhibitor project, luminescence, kanamycin, BacTiterGlo, confirmation (AID 1900); assay type: functional, organism-based
Streptococcus = assay: Group A Streptococcus viability loss, dose response, counter-screen for streptokinase expression inhibitor project, luminescence, BacTiterGlo (AID 1915); assay type: functional, organism-based;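 also: potency for reduction of bacterial viability or growth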
[4] = inhibitors of SNCA 5'UTR-driven reporter translation, confirmation, H4 neuroglioma cells, luminescence (AID 1988); assay type: functional, cell-based
[5] = inhibitors of firefly luciferase expression or activity, dose response, H4 neuroglioma cells, luminescence (AID 1990); assay type: functional, cell-based
[6] = Luminescence Cell-Based Dose Response HTS to Identify Inhibitors of 5'UTR Stem-Loop Driven Prion Protein mRNA Translation in H4 Neuroglioblastoma Cells. [Related pubchem assays: 1827 (Project Summary), 1813 (Primary HTS)]; assay type: functional
[7] = target: T2, Corticotropin-releasing factor receptor 2/Corticotropin-releasing factor-binding protein (Homo sapiens, UniProt P24387+Q13324); assay: activators of CRF receptor 2 with binding protein – uHTS hits, confirmation (AID 602473); assay type: functional; conditions: read-out: EC50_Mean
T2 sequence (Q13324 whole entry): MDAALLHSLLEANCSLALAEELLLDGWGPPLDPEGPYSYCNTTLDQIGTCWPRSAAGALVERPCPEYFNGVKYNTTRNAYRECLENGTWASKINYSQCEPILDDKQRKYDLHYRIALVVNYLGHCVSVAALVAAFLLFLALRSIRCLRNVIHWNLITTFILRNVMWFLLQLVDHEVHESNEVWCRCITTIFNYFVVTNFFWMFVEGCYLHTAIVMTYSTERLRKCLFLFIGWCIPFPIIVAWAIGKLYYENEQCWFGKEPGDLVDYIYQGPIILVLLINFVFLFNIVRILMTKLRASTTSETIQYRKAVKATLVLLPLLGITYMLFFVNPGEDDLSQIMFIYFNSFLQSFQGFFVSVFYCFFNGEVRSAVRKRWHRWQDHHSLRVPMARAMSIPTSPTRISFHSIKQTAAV
T2 sequence (P24387 whole entry): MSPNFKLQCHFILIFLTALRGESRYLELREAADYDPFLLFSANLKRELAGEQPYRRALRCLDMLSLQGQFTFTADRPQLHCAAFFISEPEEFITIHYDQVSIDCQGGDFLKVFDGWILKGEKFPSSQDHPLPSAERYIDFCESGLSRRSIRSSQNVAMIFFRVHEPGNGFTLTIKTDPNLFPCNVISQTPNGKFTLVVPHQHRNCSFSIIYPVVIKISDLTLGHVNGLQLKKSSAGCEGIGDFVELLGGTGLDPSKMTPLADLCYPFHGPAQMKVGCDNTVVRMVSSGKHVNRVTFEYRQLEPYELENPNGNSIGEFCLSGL

[8] = Luminescence Cell-Based Dose Response HTS to Identify Activators of Luciferase Translation or Activity in H4 […] Cells. [Related pubchem assays: 1829 (Project Summary), 1814 (Primary HTS)]; assay type: functional

## COc1ccc(Cl)cc1N=C(S)N(Cc1cccnc1)Cc1ccco1
[1]
  EC50: > 60 µM (not active)
[2]
  EC50: 0.722 µM (active)

## O[Si@](CCCN1CCCCC1)(c1ccc(F)cc1)C1CCCCC1
Cytochrome P450 3A4
  AC50: 3.98 µM (inconclusive)

## COc1cccc(NC(=O)NCCCCc2ccccc2)c1
Streptokinase A
  EC50: 106 µM (active)
[3]
  EC50: > 150 µM (not active)
Streptococcus
  EC50: > 150 µM (not active)

## CN(c1ccc(OCC(=O)Nc2nc(-c3ccccc3)cs2)cc1)S(=O)(=O)c1ccc(F)cc1
[1]
  EC50: > 60 µM (not active)
[2]
  EC50: 1.14 µM (active)

## O=C(Oc1ccccc1)N1CCC2(CC1)CN(c1ccncc1)C2
Cytochrome P450 3A4
  AC50: 15.8 µM (inconclusive)

## O=C(NCC1OCCc2ccccc21)c1ccc(NC(=O)c2ccc(Cl)cc2)cc1 (stereo not given)
[4]
  EC50: 12.5 µM (active)
[5]
  EC50: > 120 µM (not active)
[6]
  EC50: 14.2 µM (active)

## Cc1ccc(NNC(=O)C2CCC2)cc1C
Streptokinase A
  EC50: > 150 µM (not active)
[3]
  EC50: > 150 µM (not active)
Streptococcus
  EC50: > 150 µM (not active)

## COc1ccc(CCn2c(C(C)C)nc3c(c(=O)c4ccccc4n3C)c2=O)cc1
[7]
  EC50: 7.87 µM (active)

## CCOc1ccc(NC(=S)N2CCc3cc(OC)c(OC)cc3C2COc2ccc3c(C)cc(=O)oc3c2)cc1 (stereo not given)
[4]
  EC50: > 120 µM (not active)
[5]
  EC50: 30.4 µM (active)
[6]
  EC50: 39.9 µM (active)

## Cc1cc(C(=O)NCC(=O)OC(C(=O)Nc2cc(C(F)(F)F)ccc2Cl)c2ccccc2)ccc1[N+](=O)[O-] (stereo not given)
Streptokinase A
  EC50: > 150 µM (not active)
[3]
  EC50: > 150 µM (not active)
Streptococcus
  EC50: > 150 µM (not active)

## Cc1nn(Cc2ccccc2)c(C)c1NC(=O)c1ccc([N+](=O)[O-])cc1[N+](=O)[O-]
[1]
  EC50: > 60 µM (not active)
[2]
  EC50: 0.307 µM (active)

## Clc1ccc(-c2csc(Nc3cccnc3)n2)cc1
[1]
  EC50: > 60 µM (not active)
[2]
  EC50: 0.3 µM (active)

## CCc1cccc(C)c1NC(=O)COC(=O)c1c2c(nc3ccccc13)/C(=C\c1cccs1)CCC2
[1]
  EC50: > 60 µM (not active)
[2]
  EC50: 2.22 µM (active)

## Nc1nc2n(n1)C(c1cccc(Br)c1)CC(c1ccc(F)cc1)N2 (stereo not given)
[7]
  EC50: > 53 µM (inactive)

## CC/C(C)=C1\SC(N2CCN(c3cccc(C(F)(F)F)c3)CC2)=NC1=O
[4]
  EC50: > 120 µM (not active)
[5]
  EC50: 19.9 µM (active)
[6]
  EC50: > 120 µM (not active)

## CCc1ccccc1NC(=S)NCCSc1ccc(Cl)cc1
Streptokinase A
  EC50: 30.5 µM (active)

## O=C(COC(=O)Cc1cn2ccsc2n1)Nc1nc2ccccc2s1
Streptokinase A
  EC50: > 150 µM (not active)
[3]
  EC50: 2.64 µM (active)
Streptococcus
  EC50: 6.72 µM (active)

## CCOC(=O)c1sc(NC(=O)c2ccc(S(=O)(=O)N(C)C)cc2)cc1C
[1]
  EC50: 8.88 µM (active)
[2]
  EC50: 2.21 µM (active)

## C=CCNC(=S)N/N=C/c1ccc(-c2ccc(Cl)cc2Cl)o1
[1]
  EC50: > 60 µM (not active)
[2]
  EC50: 1.6 µM (active)

## CNC(=O)[C@@H]1O[C@@H](n2cnc3c(NCc4cccc(I)c4)ncnc32)[C@H](O)[C@@H]1O
Cytochrome P450 3A4
  AC50: 39.8 µM (inconclusive)

## O=C(CSc1nnnn1-c1cccc2ccccc12)Nc1ccc(N2CCOCC2)c(Cl)c1
[1]
  EC50: > 60 µM (inconclusive)
[2]
  EC50: 0.457 µM (active)

## CO[C@H]1COC(=O)C/C=C\[C@H](C)COC(=O)[C@@H](OCc2ccccc2)/C=C\[C@@H]1C
Cytochrome P450 3A4
  AC50: 3.98 µM (inconclusive)

## Cc1ccc(Cn2nnc(C(=O)Nc3cccc(C)c3C)c2N)cc1
[7]
  EC50: 7.98 µM (active)

## COc1cc([C@@H]2c3cc4c(cc3[C@@H](O)[C@@H](CO)[C@@H]2CO)OCO4)cc(OC)c1O[Si](C)(C)C(C)(C)C
[4]
  EC50: 11.5 µM (active)
[5]
  EC50: 15.9 µM (active)
[6]
  EC50: 39.1 µM (active)

## COc1ccc(-c2cc(C(F)(F)F)n3ncc(C(=O)N4CCc5ccccc5C4)c3n2)cc1
[1]
  EC50: > 60 µM (not active)
[2]
  EC50: 1.84 µM (active)

## Cc1ccc(NC(=N)Nc2nc(C)cc(C)n2)cc1
[7]
  EC50: 9.85 µM (active)

## Sc1nnc(-c2cc(-c3ccccc3)[nH]n2)n1/N=C/c1ccc(Cl)cc1
Streptokinase A
  EC50: > 150 µM (not active)
[3]
  EC50: 18 µM (active)
Streptococcus
  EC50: 21.4 µM (active)

## OCCN1CCN(Cc2cccc(Oc3ccc(Cl)cc3)c2)CC1
[1]
  EC50: > 60 µM (not active)
[2]
  EC50: 3.92 µM (active)

## CCCCN(Cc1cc2cc(OC)ccc2nc1O)S(=O)(=O)c1ccc(C)cc1
[4]
  EC50: 11.1 µM (active)
[5]
  EC50: 16 µM (active)
[6]
  EC50: 11.3 µM (active)

## Cc1cc(C)c2nc(N(CCCN(C)C)C(=O)c3ccc4c(c3)OCCO4)sc2c1
[1]
  EC50: 54.2 µM (active)
[2]
  EC50: 0.5 µM (active)

## Cc1nc(-c2ccccc2)sc1-c1ccnn1C
[8]
  EC50: 0.367 µM (active)

## CC1(C)CC(=O)C=C(Nc2ccc(Br)cn2)C1
[4]
  EC50: > 120 µM (not active)
[5]
  EC50: > 120 µM (not active)
[6]
  EC50: > 120 µM (not active)

## C/C(CCN1CCCc2nc(C)c(C)cc21)=N\OC[C@@H](C)[C@H](OCc1ccccc1)C(C)C
Cytochrome P450 3A4
  AC50: 3.16 µM (inconclusive)

## CC(CCN(C)C)OC(=O)c1ccc(C(C)c2ccccc2)o1 (stereo not given)
[1]
  EC50: > 60 µM (not active)
[2]
  EC50: 0.845 µM (active)

## CCOC(=O)c1ccc(Nc2nc(C)nc3c2nnn3Cc2ccccc2)cc1
Streptokinase A
  EC50: > 150 µM (not active)
[3]
  EC50: 13.4 µM (active)
Streptococcus
  EC50: > 150 µM (not active)

## O=C(Cn1c(C(=O)N2CCN(C3CCCCC3)CC2)cc2sccc21)c1ccccc1
[1]
  EC50: > 60 µM (not active)
[2]
  EC50: 2.53 µM (active)

## N=c1nc(N)nc2n1NC(c1ccc(F)cc1)=CS2
[4]
  EC50: 13.7 µM (active)
[5]
  EC50: > 120 µM (not active)
[6]
  EC50: > 120 µM (not active)

## O=c1c(-c2cc(F)cc(F)c2)nc2cncnc2n1Cc1ccc(F)cc1
Cytochrome P450 3A4
  AC50: 10 µM (inconclusive)

## O=C(c1cc(-c2ccncc2)nc2ccc(Cl)cc12)N1CCN(Cc2ccc3c(c2)OCO3)CC1
[1]
  EC50: > 60 µM (not active)
[2]
  EC50: 0.152 µM (active)

## C[C@@H]1O[C@@H]2C3=C(C(=O)[C@H]4O[C@@H]4[C@H]3O)C1[C@@H]1[C@@H](C)OC=C3[C@H](O)[C@H]4O[C@@H]4/C(=N\OCc4ccccc4)[C@@]321
Cytochrome P450 3A4
  AC50: 6.31 µM (inconclusive)

## O=C(C1CCCCC1)N1CCC(c2nc(O)c3nnn(Cc4c(F)cccc4Cl)c3n2)CC1
Streptokinase A
  EC50: > 150 µM (not active)
[3]
  EC50: 4.19 µM (active)
Streptococcus
  EC50: 9.82 µM (active)

## Cc1c(C)n(C(=O)CN2CCC(C)CC2)c2ccccc12
Cytochrome P450 3A4
  AC50: 17.8 µM (inconclusive)

## CCN(CC)c1ccc(NC(=O)c2ccc3c(c2)c(C)c(C)n3C)cc1
[1]
  EC50: > 60 µM (not active)
[2]
  EC50: 1.63 µM (active)

## CCOC(=O)c1sc2nc(Cc3ccc(Cl)cc3)nc(S)c2c1C
[3]
  EC50: 4.03 µM (active)
Streptococcus
  EC50: > 150 µM (not active)

## CCOC(=O)c1cccc(NC(=O)/C=C/c2ccc3c(c2)OCO3)c1
[5]
  EC50: 2.11 µM (active)
[6]
  EC50: 0.361 µM (active)

## NC(=S)N/N=C\c1ccccc1OCc1ccccc1
[1]
  EC50: > 30 µM (not active)
[2]
  EC50: 0.623 µM (active)

## O=S(=O)(c1ccccc1)N1CCC2(CCN(c3ncccn3)CC2)CC1
Cytochrome P450 3A4
  AC50: 31.6 µM (inconclusive)

## CCc1ccccc1N=C(S)NCCSc1ccc(Cl)cc1
[3]
  EC50: 19.9 µM (active)
Streptococcus
  EC50: > 150 µM (not active)
